Measurements published in the NIST ThermoML archive (doi:10.1016/j.jct.2009.06.016).
“And” between values parts separate entries of the source, which are not always exact repeats. Equal values may be shown once.

Assay: xn = mol fraction of the nth substance listed
Conditions: 101 kPa, Liquid, Vibrating tube method

CCCOCC(C)O (centres undefined) [1-propoxy-2-propanol] + O
mass density
Conditions | 293.15 K | 298.15 K | 303.15 K
x1 = 0.001639 | – | 996.607 kg/m3 | 995.166 kg/m3
x1 = 0.003265 | – | 996.203 kg/m3 | 994.729 kg/m3
x1 = 0.01049 | – | 994.754 kg/m3 | 993.101 kg/m3
x1 = 0.01741 | – | 993.639 kg/m3 | 991.738 kg/m3
x1 = 0.02413 | – | 992.449 kg/m3 | 990.242 kg/m3
x1 = 0.02492 | – | 992.281 kg/m3 | 990.035 kg/m3
x1 = 0.03341 | – | 990.099 kg/m3 | 987.376 kg/m3
x1 = 0.0411 | – | 987.401 kg/m3 | 984.348 kg/m3
x1 = 0.04904 | – | 984.302 kg/m3 | 981.013 kg/m3
x1 = 0.05896 | – | 980.443 kg/m3 | 976.913 kg/m3
x1 = 0.06919 | – | 976.629 kg/m3 | 972.832 kg/m3
x1 = 0.07722 | – | 973.676 kg/m3 | 969.873 kg/m3
x1 = 0.08896 | – | 969.756 kg/m3 | 965.792 kg/m3
x1 = 0.09833 | – | 966.718 kg/m3 | 962.723 kg/m3
x1 = 0.1083 | – | 963.724 kg/m3 | 959.684 kg/m3
x1 = 0.1182 | – | 960.927 kg/m3 | 956.826 kg/m3
x1 = 0.1249 | – | 959.154 kg/m3 | 955.036 kg/m3
x1 = 0.1283 | – | 958.25 kg/m3 | 954.135 kg/m3
x1 = 0.1365 | – | 956.19 kg/m3 | 952.054 kg/m3
x1 = 0.1475 | – | 953.581 kg/m3 | 949.414 kg/m3
x1 = 0.1677 | – | 949.056 kg/m3 | 944.898 kg/m3
x1 = 0.1955 | – | 943.61 kg/m3 | 939.419 kg/m3
x1 = 0.2281 | – | 937.893 kg/m3 | 933.693 kg/m3
x1 = 0.2743 | – | 931.11 kg/m3 | 926.81 kg/m3
x1 = 0.3208 | – | 924.917 kg/m3 | 920.58 kg/m3
x1 = 0.3483 | – | 921.878 kg/m3 | 917.532 kg/m3
x1 = 0.3738 | – | 919.12 kg/m3 | 914.74 kg/m3
x1 = 0.4214 | – | 914.335 kg/m3 | 909.931 kg/m3
x1 = 0.4787 | – | 909.35 kg/m3 | 904.97 kg/m3
x1 = 0.5257 | – | 905.586 kg/m3 | 901.122 kg/m3
x1 = 0.548 | – | 904.085 kg/m3 | 899.604 kg/m3
x1 = 0.5771 | – | 902.07 kg/m3 | 897.57 kg/m3
x1 = 0.5977 | 905.093 kg/m3 | 900.499 kg/m3 | 896.129 kg/m3
x1 = 0.6247 | 903.425 kg/m3 | 898.961 kg/m3 | 894.432 kg/m3
x1 = 0.6264 | 903.218 kg/m3 | 898.785 kg/m3 | 894.261 kg/m3
x1 = 0.6385 | 902.498 kg/m3 | 897.87 kg/m3 | 893.542 kg/m3
x1 = 0.672 | 900.577 kg/m3 | 896.108 kg/m3 | 891.567 kg/m3
x1 = 0.6758 | 900.301 kg/m3 | 895.81 kg/m3 | 891.293 kg/m3
x1 = 0.6793 | 900.121 kg/m3 | 895.632 kg/m3 | 891.142 kg/m3
x1 = 0.7192 | 897.954 kg/m3 | 893.432 kg/m3 | 888.909 kg/m3
x1 = 0.7272 | 897.467 kg/m3 | 892.945 kg/m3 | 888.391 kg/m3
x1 = 0.7448 | 896.614 kg/m3 | 892.14 kg/m3 | 887.56 kg/m3
x1 = 0.7589 | 895.887 kg/m3 | 891.371 kg/m3 | 886.848 kg/m3
x1 = 0.7682 | 895.456 kg/m3 | 890.967 kg/m3 | 886.382 kg/m3
x1 = 0.7858 | 894.6 kg/m3 | 890.07 kg/m3 | 885.47 kg/m3
x1 = 0.7981 | 894.001 kg/m3 | 889.483 kg/m3 | 884.923 kg/m3
x1 = 0.8224 | 892.828 kg/m3 | 888.311 kg/m3 | 883.721 kg/m3
x1 = 0.8398 | 891.636 kg/m3 | 887.602 kg/m3 | 882.984 kg/m3
x1 = 0.8588 | 891.133 kg/m3 | 886.589 kg/m3 | 882.007 kg/m3
x1 = 0.8792 | 890.346 kg/m3 | 885.821 kg/m3 | 881.196 kg/m3
x1 = 0.8796 | 890.337 kg/m3 | 885.871 kg/m3 | 881.204 kg/m3
x1 = 0.8993 | 889.399 kg/m3 | 884.854 kg/m3 | 880.259 kg/m3
x1 = 0.9197 | 888.659 kg/m3 and 888.679 kg/m3 | 884.155 kg/m3 and 884.109 kg/m3 | 879.548 kg/m3 and 879.479 kg/m3
x1 = 0.9388 | 887.803 kg/m3 | 883.236 kg/m3 | 878.623 kg/m3
x1 = 0.9486 | 887.413 kg/m3 | 882.854 kg/m3 | 878.219 kg/m3
x1 = 0.9609 | 886.918 kg/m3 | 882.36 kg/m3 | 877.745 kg/m3
x1 = 0.9628 | 887.059 kg/m3 | 882.424 kg/m3 | 877.865 kg/m3
x1 = 0.9716 | 886.524 kg/m3 | 881.962 kg/m3 | 877.362 kg/m3
x1 = 0.9798 | 886.193 kg/m3 | 881.641 kg/m3 | 876.998 kg/m3
x1 = 0.9818 | 886.123 kg/m3 | 881.551 kg/m3 | 876.955 kg/m3
x1 = 0.9919 | 885.746 kg/m3 | 881.183 kg/m3 | 876.546 kg/m3
x1 = 1 | 885.456 kg/m3 | 880.837 kg/m3 | 876.279 kg/m3
